Read-outs that look alike come from different tables or passages of the source.
Key:
[1] = acid dissociation constant (pKa) of the monomers
[2] = at 20° C.; cited from earlier work
[3] = acid dissociation constant of each component

pKa [1]	Compound	pKa [1, 3]	Water solubility [2]
–	2-acryloyloxyethyl succinic acid [HOA-MS]	4.35	–
-1.08	C=CC(=O)N1CCOCC1 [ACMO, N-acryloylmorpholine]	–	–
–	C=CC(=O)N(CC)CC [DEAA, diethylacrylamide]	−0.77	Soluble
–	C=CC(=O)NCCCN(C)C [DMAPAA, dimethylaminopropylacrylamide]	14.88	Soluble
4.66	C=C(C)C(=O)O [MAA, methacrylic acid]	–	9.7 g/100 mL
–	C=C(C)C(=O)OC [MMA, methyl methacrylate]	–	1.6 g/100 mL
-0.34	C=CN1CCCC1=O [NVP, N-vinylpyrrolidone]	–	Miscible

Compound	pKa [1]	pKa [1, 3]	Water solubility [2]
C=CC(=O)NC(C)C [NIPAM, N-isopropylacrylamide]	14.8	–	<0.1 g/100 mL
